Laboratory results published in paper PMC11795524, “Melanin-Binding-Based Discovery of Topically Instilled Carbonic Anhydrase Inhibitors for Targeted Delivery and Prolonged Action in the Eye” (Molecular Pharmaceutics, 2025).
“And” between values parts separate entries of the source, which are not always exact repeats. Identical values can stand only once.

Test system: pigmented rabbits (Chinchilla Bastard)
Test: IOP study in pigmented rabbits after single eye drop
Format: in vivo, rabbit
Procedure: Five 3–5 months old albino (New Zealand White, all females) and five 3–6 months old pigmented rabbits (Chinchilla Bastard, 1 male and 4 females) were purchased from Charles River Laboratories, UK and Germany, respectively. Prior to the experiments, the rabbits were habituated to handling, and the baseline values of IOP were measured. During the experiments, rabbits weighed 2.4–4.0 kg.
First, stock solutions of CAIs (250 mg/mL) in dimethyl sulfoxide (Sigma-Aldrich, Germany) were prepared. These stock solutions were diluted with PBS (pH 7.4) to obtain 1 mg/mL (0.1%) or 10 mg/mL (1%) solutions.
The CAI solutions were tested in albino rabbits (eye drops of 0.1, and 0.5 or 1.0%) and in pigmented rabbits (0.5 or 1.0%). The novel CAI concentrations in solutions were determined based on the drug solubility with the aim to load the highest possible drug concentration to the single eye drop.
Baseline IOP of pigmented rabbits was raised with two intravitreal triamcinolone acetonide injections (Triesence 40 mg/mL, Novartis Finland Ltd.) with 1 week interval to each eye. This method[25],[26] may induce ocular hypertension even up to 60 days in rabbits.[25]
The rabbits were anesthetized with 0.4 mg/kg, s.c. medetomidine (Domitor vet 1 mg/mL, Orion Pharma, Espoo, Finland) and 20 mg/kg s.c. ketamine (Ketaminol vet 50 mg/mL, Pfizer Oy Animal Health, Espoo, Finland). Mydriasis was induced with topical tropicamide eyedrops (Oftan Tropicamid 5 mg/mL, Santen Pharmaceutical Co., Ltd., Tampere, Finland) and the ocular surface was anesthetized with oxybuprocaine eye drop (Oftan Obucain 4 mg/mL, Santen Pharmaceutical Co., Ltd., Tampere, Finland). Thereafter, intravitreal injection of triamcinolone acetonide (100 μL) was given with a 31G needle and syringe. After injection, the eyes were moisturized with carbomer gel (Viscotears 2 mg/g, Dr. Gerhard Mann chem.-pharm. Fabrik GmbH, Berlin, Germany) and the anesthesia was antagonized with 1 mg/kg atipamezole s.c. (Antisedan vet 5 mg/mL, Orion Pharma, Espoo, Finland).
After the second injection, IOP was allowed to settle for 10 days before the experiments were performed. […] Induction of ocular hypertension is presented in Appendix Figure 3. The IOP-lowering effects of the molecules were investigated sequentially, each test initiating once baseline IOP levels was attained.
The IOP levels in the rabbits were measured with a tonometer (Tonometer Pro, Icare Finland Ltd.). After baseline IOP measurements, a single eye drop (25 μL) was applied to the left eye, whereas the right eye was not treated. After eye drop instillation, the eyelids were kept open manually for 1 min. The IOP was measured from both eyes of the rabbits at 0.5, 1, 2, 3, 4, 5, 6, 7, and 8 h after eye drop instillation. In the case of the pigmented rabbits, the measurements were continued until 10 h postinstillation, and further until the IOP had returned to the normal baseline.
The CAIs were tested in the same rabbits to minimize interindividual data variation. Washout periods of at least 3 days were used between instillation of different compounds. The experiments started always at 8 a.m. to eliminate bias due to diurnal IOP fluctuation. At each time point, the pressure was measured three times with the same eye, and the average values were calculated and used in data analysis.

Compound: C/C(=N\Nc1ccc(S(N)(=O)=O)cc1)c1cccnc1 [A01]
- duration of IOP reduction (hypertensive pigmented rabbits, single eye drop): 14 days
- duration of IOP decrease (pigmented rabbits, single eye drop): 2 weeks
- ratio (AUCpigm/AUCalbino) of IOP response (pigmented vs albino rabbits): 85 and 85.5
